Assay results: patent publication US7015306B2 (BioSynthema, Inc., priority 1999, dated 2006)
Where a SMILES comes first, the peptide text is derived from it. [ ]: non-standard residue; d: D form. The star is where a group is joined. ξ: configuration not given here. DTPA = O=C(O)CN(CCN(CC(=O)O)CC(=O)O)CCN(CC(=O)O)CC(=O)*; ξGly(4-Pip(1-amidino)) = N=C(N)N1CCC(C(N)C(=O)O)CC1; ξPhe(4-guanidino) = N=C(N)Nc1ccc(CC(N)C(=O)O)cc1; ξGly(piperidin-4-yl) = NC(C(=O)O)C1CCNCC1; Dmt = Cc1cc(O)cc(C)c1C[C@H](N)C(=O)O; Pro(4-oxo) = O=C1CN[C@H](C(=O)O)C1; mTyr = N[C@@H](Cc1cccc(O)c1)C(=O)O; Ala(cPr) = N[C@@H](CC1CC1)C(=O)O; tBuAla = CC(C)(C)C[C@H](N)C(=O)O; Cha = N[C@@H](CC1CCCCC1)C(=O)O; Tle = CC(C)(C)[C@H](N)C(=O)O; Pip = O=C(O)[C@@H]1CCCCN1; dPip = O=C(O)[C@H]1CCCCN1; Ac6c = NC1(C(=O)O)CCCCC1; Aze = O=C(O)[C@@H]1CCN1

What was measured:
[1] = target: neurotensin receptors (Homo sapiens, UniProt P30989); assay: Competitive binding assay on frozen tissue sections of receptor-positive human tumors vs radioiodinated native neurotensin; settings: Table 3
From the text: Frozen tissue sections from receptor-positive human tumors were used in a competitive binding assay.

[2] = In vitro urine stability assay (HPLC) of In-111 labeled peptide; format: in vitro ADME; settings: rat urine, 37EC, 4 hours
In short: (§1)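 The peptide was labeled with ^111InCl3 in sodium acetate/ascorbic acid buffer for 30 min at room temperature, then diluted in 5% ethanol/PBS. It was incubated at 37 °C in human serum or rat urine for set times. Filtered aliquots were analyzed by HPLC.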

[3] = In vitro serum stability assay (HPLC) of In-111 labeled peptide; format: in vitro ADME, human; settings: human serum, 37EC, 4 hours
In short: as §1

[4] = target: T1, HT 29 colon adenocarcinoma cells (Homo sapiens, UniProt P30989); settings: Ψ(CH2NH) pseudo-peptide analogs; cited from earlier work
T1 construct: host or cells: HT 29 colon adenocarcinoma cells (endogenous receptors)

[5] = target: human brain neurotensin membranes; settings: read-out: Kd for binding on human brain neurotensin membranes; cited from earlier work
[6] = target: rat brain synaptic membranes; settings: read-out: Kd binding to rat brain synaptic membranes; cited from earlier work

Chain of neurotensin receptors (P30989 whole entry): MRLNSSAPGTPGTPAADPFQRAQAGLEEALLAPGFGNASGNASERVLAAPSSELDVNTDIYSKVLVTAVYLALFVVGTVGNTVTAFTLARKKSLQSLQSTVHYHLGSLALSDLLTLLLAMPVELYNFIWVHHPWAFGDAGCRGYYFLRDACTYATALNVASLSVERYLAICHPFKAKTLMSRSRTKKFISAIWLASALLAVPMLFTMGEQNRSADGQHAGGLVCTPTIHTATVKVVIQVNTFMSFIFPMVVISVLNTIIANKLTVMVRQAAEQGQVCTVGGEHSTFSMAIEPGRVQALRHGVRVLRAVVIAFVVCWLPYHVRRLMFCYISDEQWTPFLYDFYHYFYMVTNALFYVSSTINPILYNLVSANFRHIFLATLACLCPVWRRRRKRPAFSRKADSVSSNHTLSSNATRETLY
T1 sequence (P30989 whole entry): as above

Compound: CC[C@H](C)[C@H](NC(=O)[C@H](Cc1ccc(O)cc1)NC(=O)[C@@H]1CCCN1C(=O)C(Cc1ccc(NC(=N)N)cc1)NC(=O)C(Cc1ccc(NC(=N)N)cc1)NC(=O)[C@@H]1CCCN1C(=O)[C@@H](CCCCN)NC(=O)CN(CCN(CCN(CC(=O)O)CC(=O)O)CC(=O)O)CC(=O)O)C(=O)N[C@@H](CC(C)C)C(=O)O (stereo partly drawn) [DTPA-DLys-Pro-(4-Gu)Phe-(4-Gu)Phe-Pro-Tyr-Ile-Leu-OH] ({DTPA}-[dK]P[ξPhe(4-guanidino)][ξPhe(4-guanidino)]PYIL-OH)
- Kd [1]: 175 nM
- % of peptide at 4 hours after incubation at 37EC, Urine [2]: 2.3%
- % of peptide at 4 hours after incubation at 37EC, Serum [3]: 25.2%

Compound: CC(C)C[C@H](NC(=O)[C@@H](NC(=O)[C@H](Cc1ccc(O)cc1)NC(=O)[C@@H]1CC(=O)CN1C(=O)[C@H](CCCNC(=N)N)NC(=O)C(NC(=O)[C@@H]1CCCN1C(=O)[C@@H](CCCCN)NC(=O)CN(CCN(CCN(CC(=O)O)CC(=O)O)CC(=O)O)CC(=O)O)C1CCN(C(=N)N)CC1)C(C)(C)C)C(=O)O (stereo partly drawn) [DTPA-DLys-Pro-Gly(PipAm)-Arg-(4-oxo)Pro-Tyr-tBuGly-Leu-OH] ({DTPA}-[dK]P[ξGly(4-Pip(1-amidino))]R[Pro(4-oxo)]Y[Tle]L-OH)
- Kd [1]: > 1000 nM
- % of peptide at 4 hours after incubation at 37EC, Urine [2]: 79.7%
- % of peptide at 4 hours after incubation at 37EC, Serum [3]: 78.5%

Compound: CC(C)C[C@H](NC(=O)[C@@H](NC(=O)[C@H](Cc1ccc(O)cc1)NC(=O)[C@@H]1CCN1C(=O)[C@H](CCCNC(=N)N)NC(=O)C(NC(=O)[C@@H]1CCCN1C(=O)[C@@H](CCCCN)NC(=O)CN(CCN(CCN(CC(=O)O)CC(=O)O)CC(=O)O)CC(=O)O)C1CCN(C(=N)N)CC1)C(C)(C)C)C(=O)O (stereo partly drawn) [DTPA-DLys-Pro-Gly(PipAm)-Arg-AzeCA-Tyr-tBuGly-Leu-OH] ({DTPA}-[dK]P[ξGly(4-Pip(1-amidino))]R[Aze]Y[Tle]L-OH)
- Kd [1]: 740 nM
- % of peptide at 4 hours after incubation at 37EC, Urine [2]: 36.5%
- % of peptide at 4 hours after incubation at 37EC, Serum [3]: 79.2%

Compound: CC(C)C[C@H](NC(=O)[C@@H](NC(=O)[C@H](Cc1ccc(O)cc1)NC(=O)[C@H]1CCCCN1C(=O)[C@H](CCCNC(=N)N)NC(=O)C(NC(=O)[C@@H]1CCCN1C(=O)[C@@H](CCCCN)NC(=O)CN(CCN(CCN(CC(=O)O)CC(=O)O)CC(=O)O)CC(=O)O)C1CCN(C(=N)N)CC1)C(C)(C)C)C(=O)O (stereo partly drawn) [DTPA-DLys-Pro-Gly(PipAm)-Arg-DPipCA-Tyr-tBuGly-Leu-OH] ({DTPA}-[dK]P[ξGly(4-Pip(1-amidino))]R[dPip]Y[Tle]L-OH)
- Kd [1]: > 1000 nM
- % of peptide at 4 hours after incubation at 37EC, Urine [2]: 91.9%
- % of peptide at 4 hours after incubation at 37EC, Serum [3]: 96.2%

Compound: CC(C)C[C@H](NC(=O)[C@@H](NC(=O)[C@H](Cc1ccc(O)cc1)NC(=O)[C@@H]1CCCCN1C(=O)[C@H](CCCNC(=N)N)NC(=O)C(NC(=O)[C@@H]1CCCN1C(=O)[C@@H](CCCCN)NC(=O)CN(CCN(CCN(CC(=O)O)CC(=O)O)CC(=O)O)CC(=O)O)C1CCN(C(=N)N)CC1)C(C)(C)C)C(=O)O (stereo partly drawn) [DTPA-DLys-Pro-Gly(PipAm)-Arg-PipCA-Tyr-tBuGly-Leu-OH] ({DTPA}-[dK]P[ξGly(4-Pip(1-amidino))]R[Pip]Y[Tle]L-OH)
- Kd [1]: > 1000 nM
- % of peptide at 4 hours after incubation at 37EC, Urine [2]: 45.8%
- % of peptide at 4 hours after incubation at 37EC, Serum [3]: 69.5%

Compound: Cc1cc(O)cc(C)c1C[C@H](NC(=O)[C@@H]1CCCN1C(=O)[C@H](CCCNC(=N)N)NC(=O)C(NC(=O)[C@@H]1CCCN1C(=O)[C@@H](CCCCN)NC(=O)CN(CCN(CCN(CC(=O)O)CC(=O)O)CC(=O)O)CC(=O)O)C1CCN(C(=N)N)CC1)C(=O)N[C@H](C(=O)N[C@@H](CC(C)C)C(=O)O)C(C)(C)C (stereo partly drawn) [DTPA-DLys-Pro-Gly(PipAm)-Arg-Pro-(2,6-diMe)Tyr-tBuGly-Leu-OH] ({DTPA}-[dK]P[ξGly(4-Pip(1-amidino))]RP[Dmt][Tle]L-OH)
- Kd [1]: 45 nM
- % of peptide at 4 hours after incubation at 37EC, Urine [2]: 99.2%
- % of peptide at 4 hours after incubation at 37EC, Serum [3]: 96.6%

Compound: CC(C)C[C@H](NC(=O)C1(NC(=O)[C@H](Cc2ccc(O)cc2)NC(=O)[C@@H]2CCCN2C(=O)[C@H](CCCNC(=N)N)NC(=O)C(NC(=O)[C@@H]2CCCN2C(=O)[C@@H](CCCCN)NC(=O)CN(CCN(CCN(CC(=O)O)CC(=O)O)CC(=O)O)CC(=O)O)C2CCN(C(=N)N)CC2)CCCCC1)C(=O)O (stereo partly drawn) [DTPA-DLys-Pro-Gly(PipAm)-Arg-Pro-Tyr-Achc-Leu-OH] ({DTPA}-[dK]P[ξGly(4-Pip(1-amidino))]RPY[Ac6c]L-OH)
- Kd [1]: > 10000 nM
- % of peptide at 4 hours after incubation at 37EC, Urine [2]: 84.9%
- % of peptide at 4 hours after incubation at 37EC, Serum [3]: 89.9%

Compound: CC(C)(C)[C@H](NC(=O)[C@H](Cc1ccc(O)cc1)NC(=O)[C@@H]1CCCN1C(=O)[C@H](CCCNC(=N)N)NC(=O)C(NC(=O)[C@@H]1CCCN1C(=O)[C@@H](CCCCN)NC(=O)CN(CCN(CCN(CC(=O)O)CC(=O)O)CC(=O)O)CC(=O)O)C1CCN(C(=N)N)CC1)C(=O)N[C@@H](CC1CCCCC1)C(=O)O (stereo partly drawn) [DTPA-DLys-Pro-Gly(PipAm)-Arg-Pro-Tyr-tBuGly-Cha-OH] ({DTPA}-[dK]P[ξGly(4-Pip(1-amidino))]RPY[Tle][Cha]-OH)
- Kd [1]: 12 nM
- % of peptide at 4 hours after incubation at 37EC, Urine [2]: 65.9%
- % of peptide at 4 hours after incubation at 37EC, Serum [3]: 81.2%

Compound: CC(C)(C)[C@H](NC(=O)[C@H](Cc1ccc(O)cc1)NC(=O)[C@@H]1CCCN1C(=O)[C@H](CCCNC(=N)N)NC(=O)C(NC(=O)[C@@H]1CCCN1C(=O)[C@@H](CCCCN)NC(=O)CN(CCN(CCN(CC(=O)O)CC(=O)O)CC(=O)O)CC(=O)O)C1CCN(C(=N)N)CC1)C(=O)N[C@@H](CC1CC1)C(=O)O (stereo partly drawn) [DTPA-DLys-Pro-Gly(PipAm)-Arg-Pro-Tyr-tBuGly-Cpa-OH] ({DTPA}-[dK]P[ξGly(4-Pip(1-amidino))]RPY[Tle][Ala(cPr)]-OH)
- Kd [1]: 290 nM
- % of peptide at 4 hours after incubation at 37EC, Urine [2]: 73.6%
- % of peptide at 4 hours after incubation at 37EC, Serum [3]: 88.1%

Compound: CC(C)(C)C[C@H](NC(=O)[C@@H](NC(=O)[C@H](Cc1ccc(O)cc1)NC(=O)[C@@H]1CCCN1C(=O)[C@H](CCCNC(=N)N)NC(=O)C(NC(=O)[C@@H]1CCCN1C(=O)[C@@H](CCCCN)NC(=O)CN(CCN(CCN(CC(=O)O)CC(=O)O)CC(=O)O)CC(=O)O)C1CCN(C(=N)N)CC1)C(C)(C)C)C(=O)O (stereo partly drawn) [DTPA-DLys-Pro-Gly(PipAm)-Arg-Pro-Tyr-tBuGly-tBuAla-OH] ({DTPA}-[dK]P[ξGly(4-Pip(1-amidino))]RPY[Tle][tBuAla]-OH)
- Kd [1]: 7.3 nM
- % of peptide at 4 hours after incubation at 37EC, Urine [2]: 72.3%
- % of peptide at 4 hours after incubation at 37EC, Serum [3]: 89.2%

Compound: CC(C)C[C@H](NC(=O)[C@@H](NC(=O)[C@H](Cc1cccc(O)c1)NC(=O)[C@@H]1CCCN1C(=O)[C@H](CCCNC(=N)N)NC(=O)C(NC(=O)[C@@H]1CCCN1C(=O)[C@@H](CCCCN)NC(=O)CN(CCN(CCN(CC(=O)O)CC(=O)O)CC(=O)O)CC(=O)O)C1CCN(C(=N)N)CC1)C(C)(C)C)C(=O)O (stereo partly drawn) [DTPA-DLys-Pro-Gly(PipAm)-Arg-Pro-mTyr-tBuGly-Leu-OH] ({DTPA}-[dK]P[ξGly(4-Pip(1-amidino))]RP[mTyr][Tle]L-OH)
- Kd [1]: 300 nM
- % of peptide at 4 hours after incubation at 37EC, Urine [2]: 57.8%
- % of peptide at 4 hours after incubation at 37EC, Serum [3]: 84.4%

Compound: CC(C)C[C@H](NC(=O)[C@@H](NC(=O)[C@H](Cc1ccc(O)cc1)NC(=O)[C@@H]1CCCN1C(=O)C(NC(=O)C(NC(=O)[C@@H]1CCCN1C(=O)[C@@H](CCCCN)NC(=O)CN(CCN(CCN(CC(=O)O)CC(=O)O)CC(=O)O)CC(=O)O)C1CCN(C(=N)N)CC1)C1CCNCC1)C(C)(C)C)C(=O)O (stereo partly drawn) [DTPA-DLys-Pro-Gly(PipAm)-PipGly-Pro-Tyr-tBuGly-Leu-OH] ({DTPA}-[dK]P[ξGly(4-Pip(1-amidino))][ξGly(piperidin-4-yl)]PY[Tle]L-OH)
- Kd [1]: 140 nM
- % of peptide at 4 hours after incubation at 37EC, Urine [2]: 79.7%
- % of peptide at 4 hours after incubation at 37EC, Serum [3]: 91.6%

Compound: DTPA-Lys^8(Ψ-CH2NH)Arg^9-Pro-Tyr-Ile-Leu-OH ({DTPA}-KRPYIL-OH; also: reduced CH2NH bond between Lys and Arg) [DTPA-Lys^8-Ψ(CH2NH)-Arg^8-NT(8–13)]
- Kd [4]: 13 nM

Compound: DTPA-Lys^8-Ψ(CH2NH)-Lys^8-NT(8–13)
- Kd [4]: 7.4 nM

Compound: monoiodo-125 derivative of natural neurotensin: monoiodo-125 derivative of natural neurotensin, radioiodo analog from the literature
- Kd [5]: 0.26 nM

Compound: monoiodo-125-[Trp^11]-neurotensin (QLYENKPRRPWIL; Neurotensin monoiodo 125I label; UniProt P30990 151-163, looked up, variant Y11W)
- Kd [6]: 0.1 nM
